From ChEMBL document CHEMBL1123138 (J Med Chem, 1985)

Tested on: Rattus norvegicus
Test: Effective dose required to inhibit sorbitol accumulation in sciatic nerves of streptozotocinized rats administered perorally
Format: functional, Sciatic nerve

Compound | ED50 [mg/kg]
O=C1NC(=O)[C@@]2(CCOc3ccc(F)cc32)N1 (stereo in doubt; form 2) [SORBINIL] | 25
O=C1NC(=O)[C@@]2(CCOc3ccc(F)cc32)N1 (stereo in doubt; form 1) [SORBINIL] | 0.25
